# Measurements taken from US12162890B2 (Novartis AG, priority 2015, dated 2024).
# Target: HEK293 cells with stable expression of the GRIN1 gene and tetracycline-inducible expression of the GRIN2B gene (NMDA receptor, NR2B) (Homo sapiens, UniProt Q13224)
# Assay: Fluo-8 Ca2+ flux assay: reversal of Ro 25-6981-mediated suppression of the Ca2+ response to co-agonist (glutamate/glycine); also: test concentration or dose not given here
# Assay type: cell-based
# Conditions: reversal of the Ro 25-6981 suppression of the Ca2+ response to co-agonist (glutamate/glycine)
# Chain of HEK293 cells with stable expression of the GRIN1 gene and tetracycline-inducible expression of the GRIN2B gene (NMDA receptor, NR2B) (Q13224 27-1484, other chains not shown): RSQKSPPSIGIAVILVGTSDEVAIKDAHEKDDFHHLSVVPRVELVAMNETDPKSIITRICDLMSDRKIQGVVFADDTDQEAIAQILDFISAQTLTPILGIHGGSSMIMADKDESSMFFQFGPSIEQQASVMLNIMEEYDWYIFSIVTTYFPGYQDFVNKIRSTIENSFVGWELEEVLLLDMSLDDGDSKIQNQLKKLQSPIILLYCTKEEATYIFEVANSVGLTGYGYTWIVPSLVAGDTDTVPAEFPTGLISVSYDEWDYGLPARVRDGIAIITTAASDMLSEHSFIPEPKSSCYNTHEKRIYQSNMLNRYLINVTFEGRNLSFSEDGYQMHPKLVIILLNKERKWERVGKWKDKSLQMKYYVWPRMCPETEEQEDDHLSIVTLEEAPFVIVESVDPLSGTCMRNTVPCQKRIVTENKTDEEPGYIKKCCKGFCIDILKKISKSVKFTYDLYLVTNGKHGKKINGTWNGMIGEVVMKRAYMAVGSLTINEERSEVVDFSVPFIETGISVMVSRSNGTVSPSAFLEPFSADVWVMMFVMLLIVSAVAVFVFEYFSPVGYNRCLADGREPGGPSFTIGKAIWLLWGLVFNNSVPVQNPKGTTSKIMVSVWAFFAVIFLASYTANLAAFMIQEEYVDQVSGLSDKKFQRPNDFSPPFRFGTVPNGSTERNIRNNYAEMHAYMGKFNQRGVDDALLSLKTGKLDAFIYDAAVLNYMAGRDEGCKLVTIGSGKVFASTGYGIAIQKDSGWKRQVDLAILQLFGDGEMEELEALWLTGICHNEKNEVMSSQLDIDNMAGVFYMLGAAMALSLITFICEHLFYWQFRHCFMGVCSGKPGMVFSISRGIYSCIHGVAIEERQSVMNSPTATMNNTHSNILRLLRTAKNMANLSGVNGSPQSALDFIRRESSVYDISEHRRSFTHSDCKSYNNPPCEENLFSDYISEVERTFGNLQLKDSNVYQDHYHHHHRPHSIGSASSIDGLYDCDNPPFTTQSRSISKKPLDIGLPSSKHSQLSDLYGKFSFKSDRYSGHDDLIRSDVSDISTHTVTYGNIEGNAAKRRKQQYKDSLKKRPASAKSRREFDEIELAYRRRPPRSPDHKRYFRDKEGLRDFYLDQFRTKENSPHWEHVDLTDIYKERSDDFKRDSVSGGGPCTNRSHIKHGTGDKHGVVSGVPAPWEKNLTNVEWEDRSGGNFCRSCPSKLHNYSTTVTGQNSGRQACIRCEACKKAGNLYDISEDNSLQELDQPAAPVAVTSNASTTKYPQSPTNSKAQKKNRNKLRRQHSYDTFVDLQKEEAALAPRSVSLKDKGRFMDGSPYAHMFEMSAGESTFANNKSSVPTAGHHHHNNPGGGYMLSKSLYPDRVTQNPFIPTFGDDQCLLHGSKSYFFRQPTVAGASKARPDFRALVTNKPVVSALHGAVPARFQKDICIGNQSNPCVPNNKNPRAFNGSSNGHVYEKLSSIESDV
row,SMILES,Response Recovered (%)
1,"CCC1(F)CN(C(=O)Cn2ccc3scc(-c4cnc(Cl)nc4)c3c2=O)C1 [Example 141, 3-(2-chloropyrimidin-5-yl)-5-(2-(3-ethyl-3-fluoroazetidin-1-yl)-2-oxoethyl)thieno[3,2-c]pyridin-4(5H)-one]",−4.1%
2,"O=C(Cn1ccc2scc(-c3cnc(Cl)nc3)c2c1=O)N1CC(F)(CF)C1 [Example 142, 3-(2-chloropyrimidin-5-yl)-5-(2-(3-fluoro-3-(fluoromethyl)azetidin-1-yl)-2-oxoethyl)thieno[3,2-c]pyridin-4(5H)-one]",−4.2%
3,"CCC1(F)CN(C(=O)Cn2ccc3scc(-c4cnc(F)c(F)c4)c3c2=O)C1 [Example 143, 3-(5,6-difluoropyridin-3-yl)-5-(2-(3-ethyl-3-fluoroazetidin-1-yl)-2-oxoethyl)thieno[3,2-c]pyridin-4(5H)-one]",15%
4,"O=C(Cn1ccc2scc(-c3cnc(F)c(F)c3)c2c1=O)N1CC(F)(CF)C1 [Example 144, 3-(5,6-difluoropyridin-3-yl)-5-(2-(3-fluoro-3-(fluoromethyl)azetidin-1-yl)-2-oxoethyl)thieno[3,2-c]pyridin-4(5H)-one]",9.8%
5,"CC1(F)CN(C(=O)Cn2ccc3scc(-c4cncc(Cl)n4)c3c2=O)C1 [Example 145, 3-(6-chloropyrazin-2-yl)-5-(2-(3-fluoro-3-methylazetidin-1-yl)-2-oxoethyl)thieno[3,2-c]pyridin-4(5H)-one]",3%
6,"O=C(Cn1ccc2scc(-c3cncc(Cl)n3)c2c1=O)N1CC(F)(CF)C1 [Example 146, 3-(6-chloropyrazin-2-yl)-5-(2-(3-fluoro-3-(fluoromethyl)azetidin-1-yl)-2-oxoethyl)thieno[3,2-c]pyridin-4(5H)-one]",−3.8%
7,"CCC1(F)CN(C(=O)Cn2ccc3scc(-c4cncc(Cl)n4)c3c2=O)C1 [Example 147, 3-(6-chloropyrazin-2-yl)-5-(2-(3-ethyl-3-fluoroazetidin-1-yl)-2-oxoethyl)thieno[3,2-c]pyridin-4(5H)-one]",−0.39%
8,"O=C(Cn1cnc2[nH]cc(-c3ccc(Cl)c(C(F)(F)F)c3)c2c1=O)N1CCCC1 [Example 148, 5-(4-chloro-3-(trifluoromethyl)phenyl)-3-(2-oxo-2-(pyrrolidin-1-yl)ethyl)-3H-pyrrolo[2,3-d]pyrimidin-4(7H)-one]",66%
9,"O=C(Cn1cnc2c(c(-c3ccc(Cl)c(C(F)(F)F)c3)cn2CCF)c1=O)N1CCCC1 [Example 149, 5-(4-chloro-3-(trifluoromethyl)phenyl)-7-(2-fluoroethyl)-3-(2-oxo-2-(pyrrolidin-1-yl)ethyl)-3H-pyrrolo[2,3-d]pyrimidin-4(7H)-one]",64%
10,"O=C(Cn1cnc2[nH]cc(-c3ccc(Cl)cc3)c2c1=O)N1CCCC1 [Example 150, 5-(4-chlorophenyl)-3-(2-oxo-2-(pyrrolidin-1-yl)ethyl)-3H-pyrrolo[2,3-d]pyrimidin-4(7H)-one]",31%
11,"Cn1cc(-c2ccc(Cl)cc2)c2c(=O)n(CC(=O)N3CCCC3)cnc21 [Example 151, 5-(4-chlorophenyl)-7-methyl-3-(2-oxo-2-(pyrrolidin-1-yl)ethyl)-3H-pyrrolo[2,3-d]pyrimidin-4(7H)-one]",17%
12,"O=C(Cn1cnc2[nH]cc(-c3ccc(Cl)cc3)c2c1=O)N1CCCC1C(F)(F)F (stereo not shown) [Example 152, 5-(4-chlorophenyl)-3-(2-oxo-2-(2-(trifluoromethyl)pyrrolidin-1-yl)ethyl)-3H-pyrrolo[2,3-d]pyrimidin-4(7H)-one]",10%
13,"Cn1cc(-c2ccc(Cl)cc2)c2c(=O)n(CC(=O)N3CCCC3C(F)(F)F)cnc21 (stereo not shown) [Example 153, 5-(4-chlorophenyl)-7-methyl-3-(2-oxo-2-(2-(trifluoromethyl)pyrrolidin-1-yl)ethyl)-3H-pyrrolo[2,3-d]pyrimidin-4(7H)-one]",35%
14,"O=C(Cn1cnc2[nH]cc(-c3ccc(Cl)cc3)c2c1=O)N1CC(F)(F)C1 [Example 154, 5-(4-chlorophenyl)-3-(2-(3,3-difluoroazetidin-1-yl)-2-oxoethyl)-3H-pyrrolo[2,3-d]pyrimidin-4(7H)-one]",36%
15,"Cn1cc(-c2ccc(Cl)cc2)c2c(=O)n(CC(=O)N3CC(F)(F)C3)cnc21 [Example 155, 5-(4-chlorophenyl)-3-(2-(3,3-difluoroazetidin-1-yl)-2-oxoethyl)-7-methyl-3H-pyrrolo[2,3-d]pyrimidin-4(7H)-one]",24%
16,"O=C(Cn1cnc2[nH]cc(-c3ccc(F)c(Cl)c3)c2c1=O)N1CCCC1 [Example 156, 5-(3-chloro-4-fluorophenyl)-3-(2-oxo-2-(pyrrolidin-1-yl)ethyl)-3H-pyrrolo[2,3-d]pyrimidin-4(7H)-one]",36%
17,"CCn1cc(-c2ccc(Cl)c(C(F)(F)F)c2)c2c(=O)n(CC(=O)N3CCCC3)cnc21 [Example 157, 5-(4-chloro-3-(trifluoromethyl)phenyl)-7-ethyl-3-(2-oxo-2-(pyrrolidin-1-yl)ethyl)-3H-pyrrolo[2,3-d]pyrimidin-4(7H)-one]",70%

row,SMILES,Response Recovered (%)
1,"Cn1cc(-c2ccc(Cl)c(C(F)(F)F)c2)c2c(=O)n(CC(=O)N3CCCC3)cnc21 [Example 158, 5-(4-chloro-3-(trifluoromethyl)phenyl)-7-methyl-3-(2-oxo-2-(pyrrolidin-1-yl)ethyl)-3H-pyrrolo[2,3-d]pyrimidin-4(7H)-one]",72%
2,"Cn1cc(-c2ccc(F)c(Cl)c2)c2c(=O)n(CC(=O)N3CCCC3)cnc21 [Example 159, 5-(3-chloro-4-fluorophenyl)-7-methyl-3-(2-oxo-2-(pyrrolidin-1-yl)ethyl)-3H-pyrrolo[2,3-d]pyrimidin-4(7H)-one]",25%
3,"CCn1cc(-c2ccc(F)c(Cl)c2)c2c(=O)n(CC(=O)N3CCCC3)cnc21 [Example 160, 5-(3-chloro-4-fluorophenyl)-7-ethyl-3-(2-oxo-2-(pyrrolidin-1-yl)ethyl)-3H-pyrrolo[2,3-d]pyrimidin-4(7H)-one]",42%
4,"O=C(Cn1cnc2[nH]cc(-c3ccc(F)c(Cl)c3)c2c1=O)N1CC(F)(F)C1 [Example 161, 5-(3-chloro-4-fluorophenyl)-3-(2-(3,3-difluoroazetidin-1-yl)-2-oxoethyl)-3H-pyrrolo[2,3-d]pyrimidin-4(7H)-onepyrrolo[2,3-d]pyrimidin-4(7H)-one]",58%
5,"Cn1cc(-c2ccc(F)c(Cl)c2)c2c(=O)n(CC(=O)N3CC(F)(F)C3)cnc21 [Example 162, 5-(3-chloro-4-fluorophenyl)-3-(2-(3,3-difluoroazetidin-1-yl)-2-oxoethyl)-7-methyl-3H-pyrrolo[2,3-d]pyrimidin-4(7H)-one]",40%
6,"CCn1cc(-c2ccc(F)c(Cl)c2)c2c(=O)n(CC(=O)N3CC(F)(F)C3)cnc21 [Example 163, 5-(3-chloro-4-fluorophenyl)-3-(2-(3,3-difluoroazetidin-1-yl)-2-oxoethyl)-7-ethyl-3H-pyrrolo[2,3-d]pyrimidin-4(7H)-one]",48%
7,"O=C(Cn1cnc2[nH]cc(-c3ccc(Cl)c(F)c3)c2c1=O)N1CCCC1 [Example 164, 5-(4-chloro-3-fluorophenyl)-3-(2-oxo-2-(pyrrolidin-1-yl)ethyl)-3H-pyrrolo[2,3-d]pyrimidin-4(7H)-one]",48%
8,"Cn1cc(-c2ccc(Cl)c(F)c2)c2c(=O)n(CC(=O)N3CCCC3)cnc21 [Example 165, 5-(4-chloro-3-fluorophenyl)-7-methyl-3-(2-oxo-2-(pyrrolidin-1-yl)ethyl)-3H-pyrrolo[2,3-d]pyrimidin-4(7H)-one]",25%
9,"O=C(Cn1cnc2[nH]cc(-c3ccc(Cl)c(C(F)(F)F)c3)c2c1=O)N1CC(F)(F)C1 [Example 166, 5-(4-chloro-3-(trifluoromethyl)phenyl)-3-(2-(3,3-difluoroazetidin-1-yl)-2-oxoethyl)-3H-pyrrolo[2,3-d]pyrimidin-4(7H)-one]",65%
10,"O=C(Cn1cnc2[nH]cc(-c3ccc(Cl)c(F)c3)c2c1=O)N1CC(F)(F)C1 [Example 167, 5-(4-chloro-3-fluorophenyl)-3-(2-(3,3-difluoroazetidin-1-yl)-2-oxoethyl)-3H-pyrrolo[2,3-d]pyrimidin-4(7H)-one]",35%
11,"Cn1cc(-c2ccc(Cl)c(C(F)(F)F)c2)c2c(=O)n(CC(=O)N3CC(F)(F)C3)cnc21 [Example 168, 5-(4-chloro-3-(trifluoromethyl)phenyl)-3-(2-(3,3-difluoroazetidin-1-yl)-2-oxoethyl)-7-methyl-3H-pyrrolo[2,3-d]pyrimidin-4(7H)-one]",55%
12,CCn1cc(-c2ccc(Cl)c(C(F)(F)F)c2)c2c(=O)n(CC(=O)N3CC(F)(F)C3)cnc21 [Example 169],57%
13,"Cn1cc(-c2ccc(Cl)c(F)c2)c2c(=O)n(CC(=O)N3CC(F)(F)C3)cnc21 [Example 170, 5-(4-chloro-3-fluorophenyl)-3-(2-(3,3-difluoroazetidin-1-yl)-2-oxoethyl)-7-methyl-3H-pyrrolo[2,3-d]pyrimidin-4(7H)-one]",18%
14,"CCn1cc(-c2ccc(Cl)c(F)c2)c2c(=O)n(CC(=O)N3CC(F)(F)C3)cnc21 [Example 171, 5-(4-chloro-3-fluorophenyl)-3-(2-(3,3-difluoroazetidin-1-yl)-2-oxoethyl)-7-ethyl-3H-pyrrolo[2,3-d]pyrimidin-4(7H)-one]",15%
15,O=C(Cn1cnc2c(c(-c3ccc(F)c(Cl)c3)cn2CCF)c1=O)N1CCCC1 [Example 172],40%
16,"O=C(Cn1cnc2c(c(-c3ccc(Cl)c(F)c3)cn2CCF)c1=O)N1CCCC1 [Example 173, 5-(4-chloro-3-fluorophenyl)-7-(2-fluoroethyl)-3-(2-oxo-2-(pyrrolidin-1-yl)ethyl)-3H-pyrrolo[2,3-d]pyrimidin-4(7H)-one]",32%
17,"O=C(Cn1cnc2[nH]cc(-c3ccc(F)c(C(F)(F)F)c3)c2c1=O)N1CCC(F)C1 (stereo not shown) [Example 174, 5-(4-fluoro-3-(trifluoromethyl)phenyl)-3-(2-(3-fluoropyrrolidin-1-yl)-2-oxoethyl)-3H-pyrrolo[2,3-d]pyrimidin-4(7H)-one]",91%
